Test results: US20240101548A1, “HYDROXAMATE COMPOUND, PREPARATION METHOD THEREFOR AND APPLICATION THEREOF” (SHENZHEN CHIPSCREEN BIOSCIENCES CO., LTD., priority 2020, published 2024)
Where two headings read alike, the source gives them in different places. Values belong to the molecule of their own block, whether it stands above or below them.

Tests used:
[1] = tested on: IL-10-induced JAK1/TYK2 signal pathway; test: IL-10-induced JAK1/TYK2 signal pathway STAT3-Luc reporter gene assay in U2OS cells; assay type: cell-based, human; conditions: Homo sapiens, read-out: Half inhibition dose (IC50) on IL-10-induced JAK1/TYK2 signal pathway
Procedure, shortened: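 Luciferase read-out (560 nm) corrected by GFP signal (Ex485/Em520) gives IL-10 pathway activity, and IC50 is derived from inhibition rates. Cells were U2OS transfected with IL-10R1 plus STAT3-Luc reporter, pretreated 6 h with 0.1–300 nM compound, then stimulated 24 h with IL-10 at 10 ng/mL.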

[2] = tested on: IL-2-induced JAK1/JAK3 signal pathway; test: IL-2-induced proliferation of KHYG-1 cells (JAK1/JAK3 signal); assay type: cell-based, human; conditions: Homo sapiens; KHYG-1 cell proliferation, IL-2 10 ng/mL, 72 hours; read-out: Inhibition activity IC50 on IL-2-induced JAK1/JAK3 signal pathway
Procedure, shortened: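 Controls were wells lacking both compound and cytokine (0%) and compound-free IL-2 wells (100%). C50 was calculated from inhibition rates across doses.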

[3] = tested on: EPO-induced JAK2 signal pathway; test: EPO-induced proliferation of UT-7 cells (JAK2 signal); assay type: cell-based, human; conditions: Homo sapiens, UT7; UT-7 cell proliferation, EPO 10 ng/mL, 72 hours; read-out: Inhibition activity IC50 on EPO-induced JAK2 signal pathway
Procedure, shortened: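 […] was derived from inhibition rates across doses, scaled between wells lacking compound and cytokine (0) and EPO without compound (100), using alamarBlue fluorescence at Ex530/Em590. Compound (final 0-10000 nM) and 10 ng/mL EPO were given to UT-7 cells at 15000 per well for 72 h at 37° C.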

[4] = target: TYK2 JH2 domain (Homo sapiens (Human), UniProt P29597); test: TYK2 JH2 domain FRET tracer assay; assay type: binding; conditions: FRET 665/615 nm; read-out: Inhibition activity IC50 on TYK2 JH2 domain
Chain of TYK2 JH2 domain (P29597 589-875): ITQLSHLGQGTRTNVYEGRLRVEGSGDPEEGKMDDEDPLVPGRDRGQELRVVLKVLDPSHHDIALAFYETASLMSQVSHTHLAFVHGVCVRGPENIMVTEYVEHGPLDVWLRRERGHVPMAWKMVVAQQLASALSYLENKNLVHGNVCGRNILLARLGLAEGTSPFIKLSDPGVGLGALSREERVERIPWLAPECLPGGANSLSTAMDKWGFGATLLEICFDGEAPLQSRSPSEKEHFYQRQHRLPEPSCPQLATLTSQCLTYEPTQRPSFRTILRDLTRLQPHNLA
Experimental: Compound of the present invention formulated into different concentrations (series 3 times dilutions, started from 60 μM, 11 concentrations in total) was added to 384-well plate, followed by 5 μL of enzyme (i.e., TYK2 JH2 domain), Tb antibody (Cisbio) and tracer. The mixture was incubated at 25° C. for 60 min and left at 4° C. overnight.

[5] = U2OS, U2OS cells, STAT3-Luc reporter, IL-10 10 ng/mL
[6] = U2OS cells, STAT3-Luc reporter, IL-10 10 ng/mL

SMILES: CCONC(=O)c1cnc(Nc2cc(C)nc(C)n2)cc1Nc1ccc(C2CC2)cc1N(C)S(C)(=O)=O [Example 21, 4-((4-cyclopropyl-2-(N-methylmethanesulfonamido)phenyl)amino)-6-((2,6-dimethylpyrimidin-4-yl)amino)-N-ethoxy nicotinamide]
IC50 [1, 5]: 0.421 nM | IC50 [2]: > 10000 nM | IC50 [3]: > 10000 nM | IC50 [4]: 0.05 nM

SMILES: CCONC(=O)c1cnc(Nc2cc(C)nc(C)n2)cc1Nc1cc(F)c(C2CC2)cc1N(C)S(C)(=O)=O [Example 98]
IC50 [1, 5]: 1.51 nM | IC50 [2]: > 10000 nM | IC50 [3]: > 10000 nM | IC50 [4]: 0.09 nM

SMILES: CCONC(=O)c1cnc(Nc2cc(C)nc(C)n2)cc1Nc1ccc(Cl)cc1N(C)S(C)(=O)=O [Example 115, 4-((4-chloro-2-(N-methylmethanesulfonamido)phenyl)amino)-6-((2,6-dimethylpyrimidin-4-yl)amino)-N-ethoxy nicotinamide]
IC50 [1, 5]: 0.261 nM | IC50 [2]: > 10000 nM | IC50 [3]: > 10000 nM | IC50 [4]: 0.07 nM

SMILES: CCONC(=O)c1cnc(Nc2cc(C)nc(C)n2)cc1Nc1ccc(OCC)cc1N(C)S(C)(=O)=O [Example 181]
IC50 [1, 5]: 0.56 nM | IC50 [2]: > 10000 nM | IC50 [3]: > 10000 nM | IC50 [4]: 0.08 nM

SMILES: CCONC(=O)c1cnc(Nc2cc(C)nc(C)n2)cc1Nc1ccc(C)nc1N(C)S(C)(=O)=O [Example 186]
IC50 [1, 5]: 0.276 nM | IC50 [2]: > 10000 nM | IC50 [3]: > 10000 nM | IC50 [4]: 0.07 nM

SMILES: CCONC(=O)c1cnc(Nc2ccnc(C)n2)cc1Nc1ccc(C2CC2)cc1N(C)S(C)(=O)=O [Example 192, 4-((4-cyclopropyl-2-(N-methylmethanesulfonamido)phenyl)amino)-N-ethoxy-6-((2-methylpyrimidin-4-yl)amino)nicotinamide]
IC50 [1, 5]: 0.458 nM | IC50 [2]: > 10000 nM | IC50 [3]: > 10000 nM | IC50 [4]: 0.08 nM

SMILES: CCONC(=O)c1cnc(Nc2cc(C)nc(C)n2)cc1Nc1cc(F)c(CC)cc1N(C)S(C)(=O)=O [Example 193, 6-((2,6-dimethylpyrimidin-4-yl)amino)-N-ethoxy-4-((4-ethyl-5-fluoro-2-(N-methylmethanesulfonamido)phenyl)amino)nicotinamide]
IC50 [1, 5]: 0.647 nM | IC50 [2]: > 10000 nM | IC50 [3]: > 10000 nM | IC50 [4]: 0.06 nM

SMILES: CCONC(=O)c1cnc(Nc2ccnc(C)n2)cc1Nc1cc(F)c(C2CC2)cc1N(C)S(C)(=O)=O [Example 194, 4-((4-cyclopropyl-5-fluoro-2-(N-methylmethanesulfonamido)phenyl)amino)-N-ethoxy-6-((2-methylpyrimidin-4-yl)amino)nicotinamide]
IC50 [1, 5]: 0.6 nM | IC50 [2]: > 10000 nM | IC50 [3]: > 10000 nM | IC50 [4]: 0.08 nM

SMILES: CCONC(=O)c1cnc(Nc2cc(C)nc(C)n2)cc1Nc1cc(F)c(Cl)cc1N(C)S(C)(=O)=O [Example 198, 4-((4-chloro-5-fluoro-2-(N-methylmethanesulfonamido)phenyl)amino)-6-((2,6-dimethylpyrimidin-4-yl)amino)-N-ethoxy nicotinamide]
IC50 [1, 5]: 0.65 nM | IC50 [2]: > 10000 nM | IC50 [3]: > 10000 nM | IC50 [4]: 0.08 nM

SMILES: CCONC(=O)c1cnc(Nc2ccnc(OC)n2)cc1Nc1cc(F)c(Cl)cc1N(C)S(C)(=O)=O [Example 200, 4-((4-chloro-5-fluoro-2-(N-methylmethanesulfonamido)phenyl)amino)-N-ethoxy-6-((2-methoxypyrimidin-4-yl)amino)nicotinamide]
IC50 [1, 5]: 0.42 nM | IC50 [2]: > 10000 nM | IC50 [3]: > 10000 nM | IC50 [4]: 0.06 nM

SMILES: CCONC(=O)c1cnc(Nc2cc(C)nc(C)n2)cc1Nc1ccc(C(C)C)cc1N(C)S(C)(=O)=O [Example 201, 6-((2,6-dimethylpyrimidin-4-yl)amino)-N-ethoxy-4-((4-isopropyl-2-(N-methylmethanesulfonamido)phenyl)amino)nicotinamide]
IC50 [1, 6]: 0.541 nM | IC50 [2]: > 10000 nM | IC50 [3]: > 10000 nM | IC50 [4]: 0.06 nM

SMILES: CCONC(=O)c1cnc(Nc2cc(C)nc(C)n2)cc1Nc1cc(F)cc(-c2ncn(C3CC3)n2)c1OC [Example 204]
IC50 [1, 5]: 0.534 nM | IC50 [2]: > 10000 nM | IC50 [3]: > 10000 nM | IC50 [4]: 0.06 nM

IC50 [1, 5]: 0.587 nM
SMILES: CCONC(=O)c1cnc(Nc2cncc(F)c2)cc1Nc1ccc(C2CC2)cc1N(C)S(C)(=O)=O [Example 236, 4-((4-cyclopropyl-2-(N-methylmethanesulfonamido)phenyl)amino)-N-ethoxy-6-((5-fluoropyridin-3-yl)amino)nicotinamide]
IC50 [2]: > 10000 nM | IC50 [3]: > 10000 nM

IC50 [1, 5]: 0.395 nM
SMILES: CCONC(=O)c1cnc(Nc2ccc(F)nc2)cc1Nc1ccc(C2CC2)cc1N(C)S(C)(=O)=O [Example 237, 4-((4-cyclopropyl-2-(N-methylmethanesulfonamido)phenyl)amino)-N-ethoxy-6-((6-fluoropyridin-3-yl)amino)nicotinamide]
IC50 [2]: > 10000 nM | IC50 [3]: > 10000 nM

IC50 [1, 5]: 0.289 nM
SMILES: CCONC(=O)c1cnc(NC(=O)C2CC2)cc1Nc1cccc(-c2ncc(C)cn2)c1OC [Example 239, 6-(cyclopropylcarboxamido)-N-ethoxy-4-((2-methoxy-3-(5-methylpyrimidin-2-yl)phenyl)amino)nicotinamide]
IC50 [2]: > 10000 nM | IC50 [3]: > 10000 nM

IC50 [1, 5]: 0.258 nM
SMILES: CCONC(=O)c1cnc(Nc2ccnc(C)n2)cc1Nc1cccc(-c2ncc(C)cn2)c1OC [Example 240, N-ethoxy-4-((2-methoxy-3-(5-methylpyrimidin-2-yl)phenyl)amino)-6-((2-methylpyrimidin-4-yl)amino)nicotinamide]
IC50 [2]: > 10000 nM | IC50 [3]: > 10000 nM

SMILES: CCONC(=O)c1cnc(Nc2ncc(F)cc2F)cc1Nc1cccc(-c2ncccn2)c1OC [Example 242, 6-((3,5-difluoropyridin-2-yl)amino)-N-ethoxy-4-((2-methoxy-3-(pyrimidin-2-yl)phenyl)amino)nicotinamide]
IC50 [1, 6]: 2.12 nM | IC50 [2]: > 10000 nM | IC50 [3]: > 10000 nM

IC50 [1, 5]: 0.507 nM
SMILES: CCONC(=O)c1cnc(Nc2ccnc(C)n2)cc1Nc1cccc(-c2ncc(F)cn2)c1OC [Example 243, N-ethoxy-4-((3-(5-fluoropyrimidin-2-yl)-2-methoxyphenyl)amino)-6-((2-methylpyrimidin-4-yl)amino)nicotinamide]
IC50 [2]: > 10000 nM | IC50 [3]: > 10000 nM

IC50 [1, 5]: 2.58 nM
SMILES: CCONC(=O)c1cnc(Nc2ncc(F)cc2F)cc1Nc1cc(F)cc(-c2ncn(C3CC3)n2)c1OC [Example 244, 4-((3-(1-cyclopropyl-1H-1,2,4-triazol-3-yl)-5-fluoro-2-methoxyphenyl)amino)-6-((3,5-difluoropyridin-2-yl)amino)-N-ethoxy nicotinamide]
IC50 [2]: > 10000 nM | IC50 [3]: > 10000 nM

IC50 [1, 5]: 1.92 nM
SMILES: CCONC(=O)c1cnc(Nc2ccnc(C)n2)cc1Nc1cc(F)cc(-c2ncn(C3CC3)n2)c1OC [Example 245, 4-((3-(1-cyclopropyl-1H-1,2,4-triazol-3-yl)-5-fluoro-2-methoxyphenyl)amino)-N-ethoxy-6-((2-methylpyrimidin-4-yl)amino)nicotinamide]
IC50 [2]: > 10000 nM | IC50 [3]: > 10000 nM

IC50 [1, 5]: 2.15 nM
SMILES: CCONC(=O)c1cnc(Nc2cc(C)nc(C)n2)cc1Nc1cc(F)cc(-c2cnccn2)c1OC [Example 258, 6-((2,6-dimethylpyrimidin-4-yl)amino)-N-ethoxy-4-((5-fluoro-2-methoxy-3-(pyrazin-2-yl)phenyl)amino)nicotinamide]
IC50 [2]: > 10000 nM | IC50 [3]: > 10000 nM

IC50 [1, 5]: 0.315 nM
SMILES: CCONC(=O)c1cnc(Nc2cc(C)nc(C)n2)cc1Nc1cccc(-c2ncn(C)n2)c1OC [Example 268, 6-((2,6-dimethylpyrimidin-4-yl)amino)-N-ethoxy-4-((2-methoxy-3-(1-methyl-1H-1,2,4-triazol-3-yl)phenyl)amino)nicotinamide]
IC50 [2]: > 10000 nM | IC50 [3]: > 10000 nM

IC50 [1, 5]: 2.19 nM
SMILES: [2H]C([2H])([2H])Oc1c(Nc2cc(Nc3cc(C)nc(C)n3)ncc2C(=O)NOCC)cccc1-c1ncc(F)cn1 [Example 273, 6-((2,6-dimethylpyrimidin-4-yl)amino)-N-ethoxy-4-((3-(5-fluoropyrimidin-2-yl)-2-(methoxy-d3)phenyl)amino)nicotinamide]
IC50 [2]: > 10000 nM | IC50 [3]: > 10000 nM

SMILES: [2H]C([2H])([2H])Oc1c(Nc2cc(Nc3cc(C)nc(C)n3)ncc2C(=O)NOCC)cccc1-c1ncccn1 [Example 279, 6-((2,6-dimethylpyrimidin-4-yl)amino)-N-ethoxy-4-((2-(methoxy-d3)-3-(pyrimidin-2-yl)phenyl)amino)nicotinamide]
IC50 ([1]; U2OS): 0.529 nM | IC50 [2]: > 10000 nM | IC50 [3]: > 10000 nM
